Assay [1] deals with endothelial cell invasion of basement membrane. The settings on record: thereby inhibiting angiogenesis; cited from earlier work.
The target in another assay is T1, MMP-2 (Homo sapiens, UniProt P08253).
T1 construct: Catalytic domain MMP-2, MMP-3 and MMP-9 were prepared at Pfizer Central Research; made in house
Kind of assay: Inhibition of MMP-2, cleavage of fluorogenic peptide. The assay is classed as biochemical. The settings on record: x = 2; read-out: MMP-2 inhibitor IC50. The method, then:
(§1) The ability of compounds to inhibit the cleavage of fluorogenic peptides by MMPs 1, 2, 3, 9 12, 13 and 14 is described below.
(§2) The assays for MMPs 2, 3, 9, and 14 are based upon the original protocol described by Knight et al. (Fed.Euro.Biochem.Soc., 296 (3), 263-266; 1992) with the slight modifications given below.
(§3) Catalytic domain MMP-2, MMP-3 and MMP-9 were prepared at Pfizer Central Research. […] MMP-3 was activated by the addition of 2 mM APMA, followed by incubation for 3 hours at 37° C. The enzymes were then diluted in Tris-HCl assay buffer (100 mM Tris, 100 mM NaCl, 10 mM CaCl2 and 0.16% Brij 35, pH 7.5), to a concentration of 10 nM. The final concentration of enzyme used in the assays was 1 nM.
(§4) The fluorogenic substrate used in this screen was Mca-Arg-Pro-Lys-Pro-Tyr-Ala-Nva-Trp-Met-Lys(Dnp)-NH2 (Bachem Ltd, Essex, UK) as originally described by Nagase et al (J.Biol.Chem., 269(33), 20952-20957, 1994). […] The final substrate concentration used in the assay was 5 μM. […]
(§5) Test compounds were dissolved in dimethyl sulphoxide and diluted with test buffer solution (as above) so that no more than 1% dimethyl sulphoxide was present. […] Plates were then incubated for 1 hour at 37° C. prior to determination of fluorescence using a fluorimeter (Fluostar; BMG LabTechnologies, Aylesbury, UK) at an excitation wavelength of 328 nm and emission wavelength of 393 nm.

The target in another assay is T2, MMP-12 (Homo sapiens, UniProt P39900).
T2 construct: Catalytic domain MMP-12 (200 μg/ml) was used
In words: Inhibition of MMP-12 (Human Macrophage Elastase), cleavage of fluorogenic peptide. The assay is classed as biochemical. The settings on record: x = 12; read-out: MMP-12 inhibitor IC50. The method, then: as §1
Inhibition of MMP-12 (Human Macrophage Elastase)
Catalytic domain MMP-12 (200 μg/ml) was used. MMP-12 was diluted in Tris-HCl assay buffer (50 mM Tris, 200 mM NaCl, 5 mM CaCl2, 20 μM ZnSO4, 0.02% Brij 35) pH 7.4 to 240 ng/ml. The final concentration of enzyme used in the assay was 60 ng/ml.
The fluorogenic substrate used in this assay was DNP-Pro-Cha-Gly-Cys(Me)-His-Ala-Lys(NMA)-NH2. The final substrate concentration used in the assay was 10 μM.
(§6) (iii) Determination of Enzyme Inhibition
Test compounds were dissolved in dimethyl sulphoxide and diluted with assay buffer so that no more than 1% dimethyl sulphoxide was present. Test compound and enzyme were added to each well of a 96 well plate and allowed to equilibrate for 15 minutes at room temperature in an orbital shaker prior to the addition of substrate. Plates were then incubated for 2 hours at room temperature prior to the determination of fluorescence (substrate cleavage) using a fluorimeter at an excitation wavelength of 360 nm and emission wavelength of 460 nm.

The next assay concerns the target T3, MMP-3 (Homo sapiens, UniProt P08254).
T3 construct: Catalytic domain MMP-2, MMP-3 and MMP-9 were prepared at Pfizer Central Research; made in house
Kind of assay: Inhibition of MMP-3, cleavage of fluorogenic peptide. It is filed as biochemical. Here is the method: as §1, §3
The final substrate concentration used in the assay was 5 μM.
as §6
Test compounds were dissolved in dimethyl sulphoxide and diluted with test buffer solution (as above) so that no more than 1% dimethyl sulphoxide was present. Test compound and enzyme were added to each well of a 96 well plate and allowed to equilibrate for 15 minutes at 37° C. in an orbital shaker prior to the addition of substrate.

The target in another assay is T4, MMP-9 (Homo sapiens, UniProt P14780).
T4 construct: Catalytic domain MMP-2, MMP-3 and MMP-9 were prepared at Pfizer Central Research; made in house
Kind of assay: Inhibition of MMP-9, cleavage of fluorogenic peptide. The assay is classed as biochemical. The settings on record: x = 9; read-out: MMP-9 inhibitor IC50. Here is the method:
as §1, §2, §3, §4, §5

The target of another assay is T5, MMP-13 (Homo sapiens, UniProt P45452).
T5 construct: purchased PanVera Corporation (Madison, Wis.)
In words: Inhibition of MMP-13, cleavage of fluorogenic peptide. The assay is classed as biochemical. The settings on record: x = 13; read-out: MMP-13 inhibitor IC50. The method, then:
as §1
Human recombinant MMP-13 was prepared by PanVera Corporation (Madison, Wis.) and characterized at Pfizer (Groton, Conn.). A 1.9 mg/ml stock was activated with 2 mM APMA for 2 hours at 37° C. MMP-13 was then diluted in assay buffer (50 mM Tris, 200 mM NaCl, 5 mM CaCl2, 20 μM ZnCl2 and 0.02% Brij 35) at pH 7.5 to a concentration of 5.3 nM. The final concentration of enzyme used in the assay was 1.3 nM.
The fluorogenic substrate used in this screen was Dnp-Pro-Cha-Gly-Cys(Me)-His-Ala-Lys(NMA)-NH2. The final substrate concentration used in the assay was 10 μM.
as §6
Test compounds were dissolved in dimethyl sulphoxide and diluted with assay buffer so that no more than 1% dimethyl sulphoxide was present. Test compound and enzyme were added to each well of a 96 well plate. The addition of substrate to each well initiated the reaction. Fluorescence intensity was determined on a 96 well plate fluorometer (Cytofluor II; PerSeptive Biosystems, Inc, Framingham, Mass.) at an excitation wavelength of 360 nm and emission wavelength of 460 nm.

For another assay, the target named is T6, MMP-14 (Homo sapiens, UniProt P50281).
T6 construct: Catalytic domain MMP-14 was purchased from Prof Tschesche; purchased Prof Tschesche, Department of Biochemistry, Faculty of Chemistry, University of Bielefeld, Germany
Kind of assay: Inhibition of MMP-14, cleavage of fluorogenic peptide. The assay is classed as biochemical. The settings on record: x = 14; read-out: MMP-14 inhibitor IC50. The method, then:
as §1, §2
Test compounds were dissolved in dimethyl sulphoxide and diluted with test buffer solution (as above) so that no more than 1% dimethyl sulphoxide was present. Test compound and enzyme were added to each well of a 96 well plate and allowed to equilibrate for 15 minutes at 37° C. in an orbital shaker prior to the addition of substrate. Plates were then incubated for 1 hour at 37° C. prior to determination of fluorescence using a fluorimeter (Fluostar; BMG LabTechnologies, Aylesbury, UK) at an excitation wavelength of 328 nm and emission wavelength of 393 nm.
Catalytic domain MMP-14 was purchased from Prof Tschesche, Department of Biochemistry, Faculty of Chemistry, University of Bielefeld, Germany. A 10 μM enzyme stock solution was activated for 20 minutes at 25° C. following the addition of 5 μg/ml of trypsin (Sigma, Dorset, UK). […]

A further assay deals with keratinocyte migration. The settings on record: in vitro; cited from earlier work.

This is an account of results in US6350907B1, “Matrix metalloprotease inhibitors” (Pfizer Inc, priority 1998, dated 2002).

SMILES strings stand for the structures.

T3 sequence (P08254 100-272 limits assumed): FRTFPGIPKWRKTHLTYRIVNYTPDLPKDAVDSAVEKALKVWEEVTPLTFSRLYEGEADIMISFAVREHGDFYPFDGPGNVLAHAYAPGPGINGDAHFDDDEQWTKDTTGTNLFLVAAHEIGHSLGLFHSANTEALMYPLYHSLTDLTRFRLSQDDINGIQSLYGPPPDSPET
T1 sequence (P08253 110-446 limits assumed): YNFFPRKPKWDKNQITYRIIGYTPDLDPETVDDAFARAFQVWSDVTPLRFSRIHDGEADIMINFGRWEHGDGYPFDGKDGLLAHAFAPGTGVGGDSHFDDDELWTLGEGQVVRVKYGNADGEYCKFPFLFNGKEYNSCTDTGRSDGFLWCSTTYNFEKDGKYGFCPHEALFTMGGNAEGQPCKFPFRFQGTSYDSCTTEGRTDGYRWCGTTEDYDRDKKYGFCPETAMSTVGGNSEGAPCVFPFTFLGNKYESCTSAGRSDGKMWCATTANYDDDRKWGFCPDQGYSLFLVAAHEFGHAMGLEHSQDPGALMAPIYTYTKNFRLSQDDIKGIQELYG
T2 sequence (P39900 106-263 limits assumed): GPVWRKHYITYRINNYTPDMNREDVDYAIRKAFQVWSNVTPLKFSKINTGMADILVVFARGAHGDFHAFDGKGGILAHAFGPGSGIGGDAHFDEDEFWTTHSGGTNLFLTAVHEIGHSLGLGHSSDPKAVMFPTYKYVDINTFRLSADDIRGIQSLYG
T4 sequence (P14780 107-444 limits assumed): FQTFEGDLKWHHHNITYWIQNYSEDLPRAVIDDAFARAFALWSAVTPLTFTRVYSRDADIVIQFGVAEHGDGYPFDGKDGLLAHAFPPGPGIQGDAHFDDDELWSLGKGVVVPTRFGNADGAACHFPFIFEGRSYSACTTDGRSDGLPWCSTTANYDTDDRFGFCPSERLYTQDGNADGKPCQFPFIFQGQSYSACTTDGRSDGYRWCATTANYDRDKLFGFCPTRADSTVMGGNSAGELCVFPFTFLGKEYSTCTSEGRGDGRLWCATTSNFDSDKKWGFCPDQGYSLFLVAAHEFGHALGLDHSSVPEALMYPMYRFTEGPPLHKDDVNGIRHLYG

With `CNC(=O)[C@H](Cc1ccccc1)NC(=O)[C@H](CC(C)C)[C@H](CSc1cccs1)C(=O)NO` [BB94, (2S,3R)-5-methyl-3-{[(1S)-1-(methylcarbamoyl)-2-phenylethyl]carbamoyl}-2-[(2-thienylthio)methyl]hexanohydroxamic acid], in assay [1], the “Inhibition of endothelial cell invasion of basement membrane” value is “inhibits endothelial cell invasion of basement membrane”.
The term IC50 denotes the point on the concentration scale where inhibition reaches its midpoint. As to `Cc1cc(CCC[C@H](CC(=O)O)C(=O)N[C@H](C(=O)N[C@H](C)c2ccccc2)C(C)(C)C)ccc1-c1ccccc1` [Example 1, (3R)-3-({[(1S)-2,2-dimethyl-1-({[(1R)-1-phenylethyl]amino}carbonyl)propyl]amino}carbonyl)-6-[(3-methyl-4-phenyl)phenyl]hexanoic acid], the values for the IC50 at MMP-2, on MMP-12 and against MMP-3 were 10.8 µM, 0.085 µM and 0.101 µM, respectively. In addition, the “3/2sel: Selectivity for MMP-3 over MMP-2” value at MMP-3 was determined as 107.
As to `C[C@@H](NC(=O)[C@@H](NC(=O)[C@H](CCCc1ccc(-c2ccccc2)c(Cl)c1)CC(=O)NO)C(C)(C)C)c1ccccc1` [Example 2, (2R)-2-{3-[3-Chloro-(4-phenyl)phenyl]propyl}-N1-[(1S)-2,2-dimethyl-1-({[(1R)-1-phenylethyl]amino}carbonyl)propyl]-(N4-hydroxy)butanediamide.], the figures for the IC50 at MMP-9, on MMP-13 and at MMP-14 were 1.91 µM, 0.13 µM and 5.65 µM, respectively.
Regarding `CNC(=O)[C@H](Cc1ccc(OC)cc1)NC(=O)[C@@H](CC(=O)NO)CC(C)C` [SC44463], the “Inhibition of keratinocyte migration on a collagen type I matrix” value in the assay on keratinocyte migration was “completely inhibited”.
